The values that follow come from paper PMC7744269 (Bioorganic & medicinal chemistry, 2010).

The subject of assay [1] is viruses (HIV, Vaccinia virus, Cowpox virus, etc.). Conditions: previously reported; cited from earlier work.
The target of assay [2] is T1, Ureaplasma parvum thymidine kinase (UpTK) (Ureaplasma parvum serovar 3, UniProt Q9PPP5).
T1 sequence (Q9PPP5 1-223): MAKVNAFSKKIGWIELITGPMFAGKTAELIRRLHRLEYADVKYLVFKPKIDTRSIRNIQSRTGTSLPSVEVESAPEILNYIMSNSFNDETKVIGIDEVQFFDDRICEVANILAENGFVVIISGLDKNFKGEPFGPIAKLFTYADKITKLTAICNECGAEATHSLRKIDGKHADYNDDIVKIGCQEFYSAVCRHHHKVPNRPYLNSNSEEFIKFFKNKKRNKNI
The assay is described as follows: Phosphate transfer assay with [γ-32P]-ATP. It is filed as biochemical. To be noted: for Vmax values of UpTK, times lower than with AZT: compared with AZT.

The target of assay [3] is T2, human thymidine kinase 1 (hTK1) (Homo sapiens, UniProt P04183).
T2 sequence (P04183 1-234): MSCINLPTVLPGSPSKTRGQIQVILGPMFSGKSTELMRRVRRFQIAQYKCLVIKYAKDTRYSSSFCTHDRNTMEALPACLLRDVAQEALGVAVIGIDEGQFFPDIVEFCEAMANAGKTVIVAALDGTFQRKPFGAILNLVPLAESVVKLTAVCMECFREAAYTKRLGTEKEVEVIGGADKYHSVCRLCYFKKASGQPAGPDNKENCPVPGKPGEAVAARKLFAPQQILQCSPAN
In words: IC50 determination, DE-81 filter paper [3H]-dThd assay, hTK1. It is filed as biochemical.

Take `Cc1cn([C@H]2C[C@H](n3cc(CO)nn3)[C@@H](CO)O2)c(=O)[nH]c1=O` [Compound 1, 3′-(4-Hydroxymethyl-1,2,3-triazol-1-yl)-3′-deoxythymidine]: in assay [1], the Antiviral activity result is listed as “devoid of significant antiviral activity”.
As to `CCCc1cn([C@H]2C[C@H](n3cc(C)c(=O)[nH]c3=O)O[C@@H]2CO)nn1` [Compound 6, 3′-(4-Propyl-1,2,3-triazol-1-yl)-3′-deoxythymidine], the “Relative efficiency with UpTK” value in assay [2] (compared to dThd (set to 100%)) was 1.6%.
As to `Cc1cn([C@H]2C[C@H](n3cc(-c4ccccc4)nn3)[C@@H](CO)O2)c(=O)[nH]c1=O` [Compound 9, 3′-(4-Phenyl-1,2,3-triazol-1-yl)-3′-deoxythymidine], in assay [1], the Antiviral activity entry is on record as “devoid of significant antiviral activity”. The “Vmax values of UpTK, times lower than with AZT” value in assay [2] is on record as 3–4.
As a reminder, the IC50 is the midpoint of a concentration-inhibition curve. Read a high IC50 as lower potency. Take `Cc1cn([C@H]2C[C@H](n3cc(-c4ccccn4)nn3)[C@@H](CO)O2)c(=O)[nH]c1=O` [Compound 12, 3′-(4-(2-Pyridine)-1,2,3-triazole-1-yl)-2′-deoxythymidine]: the Antiviral activity result in assay [1] is “devoid of significant antiviral activity”. In addition, in assay [2], the “Vmax values of UpTK, times lower than with AZT” value is on record as 3–4. The molecule further had a half-inhibitory concentration (IC50) in assay [3] of 40 to 50 µM.
Take `Cc1cn([C@H]2C[C@H](n3cc(-c4ccc(F)cc4)nn3)[C@@H](CO)O2)c(=O)[nH]c1=O` [Compound 13, 3′-(4-(4-Fluorophenyl)-1,2,3-triazole-1-yl)-2′-deoxythymidine]: the Antiviral activity entry in assay [1] is “devoid of significant antiviral activity”. Also, the “Phosphorylation with UpTK compared to hTK1 (relative activity)” value in assay [2] (UpTK vs hTK1) is “five times more potent with UpTK than hTK1”. Also, in assay [2], the “Vmax values of UpTK, times lower than with AZT” value is given as 3–4.
